Source: PubChem BioAssay (NCI)
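Exposure lasted 48 hours, with cells grown in 96-well plates and compounds tested at five concentrations. TGI denotes the concentration required for complete inhibition of growth.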

Experiments:
Assay in all cases: DTP human tumour cell line panel, 48 h
HS 578T breast = test system: HS 578T breast
PC-3 prostate = test system: PC-3 prostate
SK-MEL-5 melanoma = test system: SK-MEL-5 melanoma
786-0 renal = test system: 786-0 renal
UO-31 renal = test system: UO-31 renal
HOP-62 NSCLC = test system: HOP-62 NSCLC
MDA-MB-435 = test system: MDA-MB-435
ACHN renal = test system: ACHN renal
LOX IMVI melanoma = test system: LOX IMVI melanoma
NCI/ADR-RES ovarian = test system: NCI/ADR-RES ovarian
SF-295 CNS = test system: SF-295 CNS
MCF7 breast = test system: MCF7 breast
OVCAR-8 ovarian = test system: OVCAR-8 ovarian
COLO 205 colon = test system: COLO 205 colon
SF-268 CNS = test system: SF-268 CNS
SN12C renal = test system: SN12C renal
KM12 colon = test system: KM12 colon
T-47D breast = test system: T-47D breast
MDA-N = test system: MDA-N
HL-60(TB) leukemia = test system: HL-60(TB) leukemia
U251 CNS = test system: U251 CNS
RPMI-8226 leukemia = test system: RPMI-8226 leukemia
OVCAR-5 ovarian = test system: OVCAR-5 ovarian
UACC-62 melanoma = test system: UACC-62 melanoma
SNB-75 CNS = test system: SNB-75 CNS
HCT-15 colon = test system: HCT-15 colon
BT-549 breast = test system: BT-549 breast
NCI-H460 lung = test system: NCI-H460 lung
MOLT-4 leukemia = test system: MOLT-4 leukemia
HCT-116 colon = test system: HCT-116 colon
SR leukemia = test system: SR leukemia
NCI-H522 lung = test system: NCI-H522 lung
CAKI-1 renal = test system: CAKI-1 renal
TK-10 renal = test system: TK-10 renal
SNB-19 CNS = test system: SNB-19 CNS
NCI-H226 lung = test system: NCI-H226 lung
A498 renal = test system: A498 renal
SK-MEL-28 melanoma = test system: SK-MEL-28 melanoma
UACC-257 melanoma = test system: UACC-257 melanoma
OVCAR-3 ovarian = test system: OVCAR-3 ovarian
IGROV1 ovarian = test system: IGROV1 ovarian
SW-620 colon = test system: SW-620 colon
HT29 colon = test system: HT29 colon
MDA-MB-231 breast = test system: MDA-MB-231 breast
NCI-H23 lung = test system: NCI-H23 lung
MALME-3M melanoma = test system: MALME-3M melanoma
K-562 leukemia = test system: K-562 leukemia
RXF 393 renal = test system: RXF 393 renal
HCC-2998 colon = test system: HCC-2998 colon
SK-MEL-2 melanoma = test system: SK-MEL-2 melanoma
EKVX NSCLC = test system: EKVX NSCLC
OVCAR-4 ovarian = test system: OVCAR-4 ovarian
DU-145 prostate = test system: DU-145 prostate
M14 melanoma = test system: M14 melanoma
HOP-92 NSCLC = test system: HOP-92 NSCLC
SF-539 CNS = test system: SF-539 CNS
SK-OV-3 ovarian = test system: SK-OV-3 ovarian
CCRF-CEM leukemia = test system: CCRF-CEM leukemia
A549 NSCLC = test system: A549 NSCLC

Measured: TGI

Cc1cccc(-n2c(C)nc3ccc(NC4OC(CO)C(O)C(O)C4O)cc3c2=O)c1 (stereo unspecified)
not listed: M14 melanoma | HOP-92 NSCLC | SF-539 CNS | SK-OV-3 ovarian | CCRF-CEM leukemia | A549 NSCLC
> 100 µM: all other assays above

CC(C)(C)OC(=O)NC1CC=CCC1NC(=O)OC(C)(C)C (stereo unspecified)
not listed: EKVX NSCLC
> 100 µM: all other assays above
